Data reported in patent publication US9783488B2 (CHDI Foundation, Inc., priority 2013, dated 2017).

Legend:
[1] = target: human catalytic domain HDAC4 protein (amino acids 648-1032) (Homo sapiens (Human), UniProt P56524); assay: Inhibition of HDAC4 catalytic domain enzymatic activity, fluorogenic substrate Boc-Lys(Tfa)-AMC; details: HDAC4 catalytic domain enzyme, read-out: Biochemical HDAC4 IC50
[2] = test system: cellular histone deacetylase enzymatic activity in Jurkat E6-1 cells; assay: Inhibition of cellular HDAC activity in Jurkat E6-1 cells, fluorogenic substrate Boc-Lys(Tfa)-AMC; format: cell-based; details: Homo sapiens, read-out: Cell IC50
Method in brief: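 Jurkat E6.1 cells (75,000/well) were pre-treated with compound for 2 h at 37 °C, then given Boc-Lys(Tfa)-AMC (5× stock 500 μM) for 3 h. Cells were lysed with trypsin-containing buffer overnight, and released AMC fluorescence was read at Ex 355/Em 460 nm over a 16-point dilution series.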

Chain of human catalytic domain HDAC4 protein (amino acids 648-1032) (P56524 648-1032): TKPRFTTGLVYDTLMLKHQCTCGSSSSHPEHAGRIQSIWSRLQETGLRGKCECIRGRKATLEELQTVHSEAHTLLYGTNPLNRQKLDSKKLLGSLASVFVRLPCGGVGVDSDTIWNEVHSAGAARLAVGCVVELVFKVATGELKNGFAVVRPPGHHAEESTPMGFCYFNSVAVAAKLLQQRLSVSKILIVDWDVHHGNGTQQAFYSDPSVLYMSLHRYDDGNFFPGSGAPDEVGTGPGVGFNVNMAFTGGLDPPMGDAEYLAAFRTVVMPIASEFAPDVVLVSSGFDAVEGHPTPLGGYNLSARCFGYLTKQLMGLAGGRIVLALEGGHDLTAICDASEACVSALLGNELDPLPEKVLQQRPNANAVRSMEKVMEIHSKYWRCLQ

| SMILES | IC50 [1] [µM] | IC50 [2] [µM] |
| --- | --- | --- |
| Cc1c(F)cccc1[C@]1(C(=O)NO)CC[C@H](c2ccc3ncccc3c2)C1 (relative stereo) [Example 84, (1S,3S*)-1-(3-Fluoro-2-methylphenyl)-N-hydroxy-3-(quinolin-6-yl)cyclopentanecarboxamide] | 0.048 | 0.18 |
| Cc1c(Cl)cccc1C1(C(=O)NO)CCCC1 [Example 17, 1-(3-chloro-2-methylphenyl)-N-hydroxycyclopentanecarboxamide] | 0.28 | 2.53 |
| O=C(NO)C1(c2cccc3ccsc23)CCCC1 [Example 38, 1-(Benzo[b]thiophen-7-yl)-N-hydroxycyclopentanecarboxamide] | 0.61 | 4.6 |
| O=C(NO)C1(c2ccccc2)CCCCCC1 [Example 106, N-hydroxy-1-phenylcycloheptanecarboxamide] | 6.9 | 41.1 |
| Cc1c(F)cccc1[C@]1(C(=O)NO)CC[C@H](c2cncc(F)c2)C1 (stereo in doubt) [Example 9, (1S,3S*)-1-(3-fluoro-2-methyl-phenyl)-3-(5-fluoropyridin-3-yl)-N-hydroxycyclopentanecarboxamide] | 0.15 | 1.28 |
| Cc1c(F)cccc1[C@]1(C(=O)NO)CC[C@@H](c2ccc3nc(C(F)(F)F)[nH]c3c2)C1 (relative stereo) [Example 74, (1S,3R*)-1-(3-Fluoro-2-methylphenyl)-N-hydroxy-3-(2-(trifluoromethyl)-1H-benzo[d]imidazol-6-yl)cyclopentanecarboxamide] | 0.074 | 0.11 |
| Cc1c(F)cccc1[C@]1(C(=O)NO)CC[C@H](c2nc3ccccc3s2)C1 (relative stereo) [Example 75, (1S,3S*)-3-(Benzo[d]thiazol-2-yl)-1-(3-fluoro-2-methylphenyl)-N-hydroxycyclopentanecarboxamide] | 0.08 | 0.16 |
| Cc1c(F)cccc1[C@]1(C(=O)NO)CC[C@@H](OCc2ccc(F)cc2)CC1 [Example 102, (1s,4s)-1-(3-fluoro-2-methylphenyl)-4-((4-fluorobenzyl)oxy)-N-hydroxycyclohexanecarboxamide] | 14 | 49 |
| Cc1c(F)cccc1[C@]1(C(=O)NO)CC[C@H](OCc2ccc(F)cc2)C1 [Example 97, (1S,3S)-1-(3-fluoro-2-methylphenyl)-3-((4-fluorobenzyl)oxy)-N-hydroxycyclopentanecarboxamide] | 0.24 | 0.66 |
| O=C(NO)C1(c2cccc(F)c2F)CCCC1 [Example 15, 1-(2,3-difluorophenyl)-N-hydroxycyclopentanecarboxamide] | 2.5 | 18.5 |
| O=C(NO)C1(c2cccc3c2OCC3)CCCC1 [Example 16, 1-(2,3-dihydrobenzofuran-7-yl)-N-hydroxycyclopentanecarboxamide] | > 50 | > 50 |
| Cc1c(F)cccc1[C@]1(C(=O)NO)CC[C@@H](c2cccc3cnn(C)c23)C1 (relative stereo) [Example 60, (1S,3R*)-1-(3-fluoro-2-methylphenyl)-N-hydroxy-3-(1-methyl-1H-indazol-7-yl)cyclopentanecarboxamide] | 0.36 | 0.81 |
| Cc1cc(F)ccc1C1(C(=O)NO)CCCC1 [Example 35, 1-(4-Fluoro-2-methylphenyl)-N-hydroxycyclopentanecarboxamide] | 0.57 | 5.6 |
| Cc1c(F)cccc1[C@]1(C(=O)NO)CC[C@@H](c2cc3c(cnn3C)cc2F)C1 [Example 81, (1S,3R)-3-(5-Fluoro-1-methyl-1H-indazol-6-yl)-1-(3-fluoro-2-methylphenyl)-N-hydroxycyclopentanecarboxamide] | 0.15 | 0.58 |
| O=C(NO)[C@]1(c2ccccc2)CC[C@H](c2cncc(F)c2)CC1 [Example 14, (1s,4s)-4-(5-fluoropyridin-3-yl)-N-hydroxy-1-phenylcyclohexanecarboxamide] | > 50 | > 50 |
| Cc1c(F)cccc1[C@]1(C(=O)NO)CC[C@H](c2cncc(F)c2)CC1 [Example 99, (1r,4r)-1-(3-fluoro-2-methylphenyl)-4-(5-fluoropyridin-3-yl)-N-hydroxycyclohexanecarboxamide] | 4.1 | 38 |
| Cc1c(F)cccc1C1(C(=O)NO)CCC2(CCOCC2)C1 (racemic) [Example 105, (±)-2-(3-fluoro-2-methylphenyl)-N-hydroxy-8-oxaspiro[4.5]decane-2-carboxamide] | 1.4 | 12 |
| O=C(NO)[C@]1(c2ccccc2)CC[C@@H](c2cncc(F)c2)CC1 [Example 13, (1 r,4r)-4-(5-fluoropyridin-3-yl)-N-hydroxy-1-phenylcyclohexanecarboxamide] | 6.4 | 48.8 |
| O=C(NO)[C@@]1(c2ccccc2)CC[C@H](c2cncc(F)c2)C1 [Example 42, (1S,3S)-3-(5-fluoropyridin-3-yl)-N-hydroxy-1-phenylcyclopentanecarboxamide] | 1.4 | 7.2 |

| SMILES | IC50 [1] [µM] | IC50 [2] [µM] |
| --- | --- | --- |
| Cc1c(F)cccc1[C@]1(C(=O)NO)CC[C@@H](c2nc3ccccc3s2)C1 (relative stereo) [Example 76, (1S,3R*)-3-(Benzo[d]thiazol-2-yl)-1-(3-fluoro-2-methylphenyl)-N-hydroxycyclopentanecarboxamide] | 0.16 | 0.24 |
| Cc1c(F)cccc1[C@]1(C(=O)NO)CC[C@@H](c2ccc3c(F)nn(C)c3c2)C1 (relative stereo) [Example 67, (1S,3R*)-3-(3-fluoro-1-methyl-1H-indazol-6-yl)-1-(3-fluoro-2-methylphenyl)-N-hydroxycyclopentanecarboxamide] | 0.4 | 0.36 |
| Cc1c(F)cccc1C1(C(=O)NO)CCCC1 [Example 18, 1-(3-fluoro-2-methylphenyl)-N-hydroxycyclopentanecarboxamide] | 0.27 | 1.7 |
| Cc1c(F)cccc1[C@]1(C(=O)NO)CC[C@@H](N2CCOCC2)C1 (relative stereo) [Example 89, (1S,3R*)-1-(3-fluoro-2-methylphenyl)-N-hydroxy-3-morpholinocyclopentanecarboxamide] | 1.1 | 7.3 |
| Cc1c(F)cccc1[C@]1(C(=O)NO)CC[C@@H](c2cncc(F)c2)CC1 [Example 100, (1s,4s)-1-(3-Fluoro-2-methylphenyl)-4-(5-fluoropyridin-3-yl)-N-hydroxycyclohexanecarboxamide] | 0.66 | 0.37 |
| Cc1c(F)cccc1[C@]1(C(=O)NO)CC[C@H](c2ccnn2C)C1 (relative stereo) [Example 50, (1S,3S*)-1-(3-Fluoro-2-methylphenyl)-N-hydroxy-3-(1-methyl-1H-pyrazol-5-yl)cyclopentanecarboxamide] | 0.25 | 1.8 |
| Cc1c(F)cccc1[C@]1(C(=O)NO)CC[C@@H](Oc2cncc(F)c2)C1 [Example 93, (1S,3R)-1-(3-fluoro-2-methylphenyl)-3-((5-fluoropyridin-3-yl)oxy)-N-hydroxycyclopentanecarboxamide] | 0.2 | 1.9 |
| Cc1c(F)cccc1[C@]1(C(=O)NO)CC[C@@H](c2ccc3ncccc3c2)C1 (relative stereo) [Example 85, (1 S,3R*)-1-(3-Fluoro-2-methylphenyl)-N-hydroxy-3-(quinolin-6-yl)cyclopentanecarboxamide] | 0.062 | 0.12 |
| N#Cc1cccc(C2(C(=O)NO)CCCC2)c1 [Example 28, 1-(3-Cyanophenyl)-N-hydroxycyclopentanecarboxamide] | > 50 | > 50 |
| O=C(NO)C1(c2ccccc2)CCCC1 [Example 21, N-Hydroxy-1-phenylcyclopentanecarboxamide] | 11.4 | > 50 |
| Cc1cccc(C2(C(=O)NO)CCCC2)c1 [Example 25, N-Hydroxy-1-m-tolylcyclopentanecarboxamide] | 8.2 | 43.7 |
| Cc1c(F)cccc1C1(C(=O)NO)CCC(c2cccnc2)C1 (stereo not shown) [Example 1, 1-(3-fluoro-2-methylphenyl)-N-hydroxy-3-(pyridin-3-yl)cyclopentanecarboxamide] | 0.19 | 1.23 |
| O=C(NO)C1(c2ccccc2)CCCCC1 [Example 98, 1-phenyl-N-hydroxycyclohexylcarboxamide] | > 50 | > 50 |
| O=C(NO)C1(c2ccccc2F)CCCC1 [Example 19, 1-(2-fluorophenyl)-N-hydroxycyclopentanecarboxamide] | 4.6 | 44.7 |
| Cc1c(F)cccc1[C@]1(C(=O)NO)CC[C@@H](Oc2ccc3cnn(C)c3c2)C1 [Example 91, (1S,3R)-1-(3-Fluoro-2-methylphenyl)-N-hydroxy-3-((1-methyl-1H-indazol-6-yl)oxy)cyclopentanecarboxamide] | 0.29 | 1.6 |
| Cc1c(F)cccc1[C@]1(C(=O)NO)CC[C@H](Oc2ccc3cnn(C)c3c2)C1 [Example 92, (1S,3S)-1-(3-Fluoro-2-methylphenyl)-N-hydroxy-3-((1-methyl-1H-indazol-6-yl)oxy)cyclopentanecarboxamide] | 0.14 | 0.47 |
| Cc1cccc(Cl)c1C1(C(=O)NO)CCCC1 [Example 31, 1-(2-Chloro-6-methylphenyl)-N-hydroxycyclopentanecarboxamide] | 0.91 | 8.1 |
| Cc1c(F)cccc1[C@]1(C(=O)NO)CC[C@@H](c2ccc(F)cn2)C1 (relative stereo) [Example 12, (1S,3R*)-1-(3-fluoro-2-methylphenyl)-3-(5-fluoropyridin-2-yl)-N-hydroxycyclopentane carboxamide] | 0.24 | 2.37 |
| O=C(NO)C1(c2ccc(Cl)cc2)CCCC1 [Example 20, 1-(4-chlorophenyl)-N-hydroxycyclopentanecarboxamide] | 24 | > 50 |
